Source: patent US11752155B2, “Treatment of autism spectrum disorders, obsessive-compulsive disorder and anxiety disorders” (Rugen Holdings (Cayman) Limited, priority 2016, dated 2023)
Where two headings read alike, the source gives them in different places.

Columns and labels:
Format in all cases: in vivo, mouse
[1] = tested on: wild type littermate mice; experiment: Grooming Test in wild type littermates of Sapap3 and Shank3 complete knockout mice; details: for effect on grooming on Day 3 / effect on grooming on Day 5: 3 mg/kg IP on Day 1, wild type littermates; for effect on grooming on Day 1: 3 mg/kg IP, wild type littermates; for acute effect on grooming on Day 1: wild type littermates of Sapap3 knockout mice, dose-dependent
Description: Animals. The breeding conditions and genotyping methods for Sapap3 and Shank3 complete knockout mice were the same as described in Welch et al. (Nature 2007, 448(7156):894-900) and in Wang et al. (Nat. Commun. 2016, 7:11459), respectively. Homozygous knockout mice and littermate wild type mice of both genders were used at 4 to 8 weeks of age.
Compound formulation. The test compounds were dissolved in a small volume of dimethyl sulfoxide (DMSO) and diluted in an aqueous solution of 2-hydroxypropyl-beta-cyclodextrin (HP-β-CD) and administered IP. Dosing volume was 10 mL/kg. At 20 minutes after dosing, the mice were subjected to the behavioral test as described below.
Testing room and apparatus. The test room was maintained under the same conditions as the colony rooms, except the mice were housed in conventional shoe-box cages with food, water, and nesting materials. Animals were housed in the test room 48-72 hours prior to testing, in order to permit the mice to fully acclimate to the test room and conventional housing cages before testing. Tests were conducted in white polyvinyl-fluoride hard-sided foam test arenas (20×20×12 cm). The arenas were indirectly illuminated by dimmable LED light bars placed level with the arena floor and 30 cm away from the external wall of the test arena. This permitted the internal area of the arena to be evenly illuminated at approximately 40 lux. The illumination levels where the mice were housed before testing were about 80-100 lux.
Testing procedure. Mice were carefully placed into the test arenas 20 minutes after compound administration. Animals were given free exploration of the arena for 10 minutes, after which they were gently sprayed with 4 quick pumps of a water mist (total water volume approximated 1.5-1.7 mL). Mice were then allowed an additional 10 minutes to self-groom and engage in other behaviors before being removed from the arena. All tests were videotaped using cameras mounted above the testing arena and were saved to digital media format using Noldus Media Player software (Noldus Information Technologies, Leesburg, Va.). The mice were only tested once in the acute studies and were repeatedly tested in the sustained effect studies.
Quantitation of grooming bouts. Analyses of the video recordings were conducted with TopScan behavioral recognition software (Cleversys Inc, Reston, Va.). Configurations were made which scored time spent in grooming. […] These settings permitted automated scoring of grooming by TopScan that corresponded well to manual-scoring of these behaviors by a trained blinded observer using Noldus Observer XT9 (Noldus Information Technologies), with an average corrected kappa of 0.925 (range 0.807-0.983).
Statistical analyses. Data are presented as means and standard error of the means (SEMs). Analyses were conducted using SPSS 23 (IBM SPSS Statistics, Chicago, Ill.). Time spent in grooming behavior (seconds) over the 10-minute pre- and post-spray time blocks were analyzed with repeated measures analyses of variance (RMANOVA). The pre- and post-spray times were used for the within subject effects and the genotype and compound treatment condition were used as the between subject effects. In sustained effect studies, days were also used for a within subject effect. Some analyses of total groom time were performed in Prism 7.01 (GraphPad Software, La Jolla, Calif.), with one-way ANOVAs to compare genotypes on Day 1 or with RMANOVAs to compare treatment groups within the same genotype across days. Treatments with compounds were compared independently with the vehicle. All post-hoc comparisons were performed with Bonferroni corrections for multiple comparisons to avoid a Type I error. In all cases, a p<0.05 was considered significant.
The wild type littermates of the Sapap3 knockout and Shank3 complete knockout mice were retested after Day 1 compound administration to determine whether the sustained effects were unique to the knockout mice. […]

[2] = tested on: wild type mice (male C57Bl/6); experiment: Novelty Phobia Test in wild type mice; details: for change in vivo at 0.3 mg/kg / change in vivo at 1 mg/kg / change in vivo at 30 mg/kg / change in vivo at 3 mg/kg / change in vivo at 10 mg/kg: Mus musculus, ip, IP, read-out: Percent Change in Novel Object Number of Nose Touches relative to vehicle control; for pattern of the dose-response function for bouts of nose touching: mouse, in vivo
Description: Animals. Male C57Bl/6 mice (18-30 g body weight; 6-8 weeks of age) were obtained from Slaccas (Shanghai, China) and allowed to acclimate to the animal facility for 7 days. Mice were group housed in plastic cages (no more than 4 animals per cage) on wood shavings with nesting material. All animals had free access to food (M01-F, Slaccas) and water. The animal facility was maintained under artificial lighting between 7:00 AM and 7:00 PM in a controlled ambient temperature of 22-24° C. and relative humidity between 50-60%.
Compound formulation. The test compounds were prepared in a vehicle of DMSO and HP-β-CD, and administered IP or PO. The test compounds or vehicle were administered at various times (10-20 minutes) before the behavioral test described below. Dosing volume was 10 mL/kg.
Testing procedure. The behavioral testing apparatus was a rectangular black Plexiglas, 2-chambered box, with no top or bottom (50 cm long, 26 cm wide and 15 cm tall) and allowed for the simultaneous testing of 2 mice. The box was placed on a laboratory bench. The chambers of the testing box were cleaned and fresh paper chip bedding was added between tests. Mice were brought to the experiment room in their home cages on the day of testing. Behavioral tests were conducted between 10:00 AM and 1:00 PM in dim light. After drug administration, a mouse was placed into a test chamber and allowed to explore for 10 minutes. After this habituation period, a novel object (e.g., a toy ball of 3 cm in diameter with spikes) was introduced to the center of the chamber for 5 minutes. For the entire 15-minute test period, video was recorded for offline analysis with Any-maze Video Tracking software (Stoelting Co., Wood Dale, Ill.). The total distance traveled during the entire 15 minutes and the number of bouts that each mouse touched the novel object during the last 5 minutes were measured.
Statistical analyses. Data are presented as means and SEMs. Data were analyzed using one-way analysis of variance (ANOVA; Prism, GraphPad Software Inc., San Diego, Calif.), followed by the post-hoc Dunnett's test to compare test compound-treated groups with the vehicle control. A p value<0.05 was considered significant.

[3] = Clearance of compound from plasma after IP dosing in mice

| time to clearance of the compound from plasma [3] | SMILES | effect on grooming on Day 3 [1] | effect on grooming on Day 5 [1] | effect on grooming on Day 1 [1] | acute effect on grooming on Day 1 [1] | change in vivo at 0.3 mg/kg ([2]; 0.25 h, pre-test time 15 min) | change in vivo at 1 mg/kg ([2]; 0.25 h, pre-test time 15 min) | change in vivo at 30 mg/kg ([2]; 0.25 h, pre-test time 15 min) | change in vivo at 0.3 mg/kg ([2]; 20 min, pre-test time 20 min) | change in vivo at 1 mg/kg ([2]; 20 min, pre-test time 20 min) | change in vivo at 3 mg/kg ([2]; 20 min, pre-test time 20 min) | pattern of the dose-response function for bouts of nose touching [2] | change in vivo at 0.3 mg/kg ([2]; 10 min, pre-test time 10 min) | change in vivo at 10 mg/kg ([2]; 10 min, pre-test time 10 min) | change in vivo at 10 mg/kg ([2]; 20 min, pre-test time 20 min) | change in vivo at 30 mg/kg ([2]; 20 min, pre-test time 20 min) |
| --- | --- | --- | --- | --- | --- | --- | --- | --- | --- | --- | --- | --- | --- | --- | --- | --- |
| about 8 hours | FC(F)c1ccc(C(F)(F)CN2CCC(Nc3ncnc4[nH]ccc34)CC2)cc1 [C-179^A′] | significantly reduced grooming | comparable to the level in the vehicle-treated group | significantly reduced grooming | significantly reduced grooming | -12% | 64.7% | 28% | 51.7% | 139% | 164% | inverted U-shaped dose-response function | – | – | – | – |
| – | Cc1ccc(COC(=O)N2CC[C@H](CNc3nccn4cnnc34)C(F)(F)C2)cc1 [E1-1.2^B′] | – | – | – | – | – | – | – | – | – | – | dose-dependent increases | 16.1% | 218% | – | – |
| about 8 hours | Cc1ccc(COC(=O)N2CC[C@H](CNc3cnc(C)cn3)C(F)(F)C2)cc1 [E1-21.26^B′] | – | – | – | significantly reduced grooming | – | – | – | – | – | 141% | dose-dependent increases | – | – | 149% | 171% |
| – | Cc1ccc(COC(=O)N2CC[C@H](CNc3ncccn3)C(F)(F)C2)cc1 [E1-22.2^B′] | significantly reduced grooming | comparable to the level in the vehicle-treated group | significantly reduced grooming | significantly reduced grooming | – | – | – | – | – | 163% | – | – | – | 115% | 98.9% |
